Reference: PubChem BioAssay (NCI)
Values joined by “and” are separate entries in the source; they are usually repeats but may differ in a detail not shown here. Equal values may be shown once.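 Following 48 hours of exposure in 96-well plates, responses at five concentrations were used to interpolate endpoints linearly. GI50 marks 50% less growth. TGI denotes the concentration required for complete inhibition of growth.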

Columns and labels:
Assay in all cases: growth of human tumour cells (NCI), 48 h
OVCAR-8 ovarian = tested on: OVCAR-8 ovarian
SNB-75 CNS = tested on: SNB-75 CNS
A498 renal = tested on: A498 renal
HOP-62 NSCLC = tested on: HOP-62 NSCLC
CAKI-1 renal = tested on: CAKI-1 renal
SNB-19 CNS = tested on: SNB-19 CNS
K-562 leukemia = tested on: K-562 leukemia
MOLT-4 leukemia = tested on: MOLT-4 leukemia
PC-3 prostate = tested on: PC-3 prostate
SK-MEL-5 melanoma = tested on: SK-MEL-5 melanoma

SMILES	GI50 (OVCAR-8 ovarian)	TGI (OVCAR-8 ovarian)	GI50 (SNB-75 CNS)	TGI (SNB-75 CNS)	GI50 (A498 renal)	TGI (A498 renal)	GI50 (HOP-62 NSCLC)	TGI (HOP-62 NSCLC)	GI50 (CAKI-1 renal)	TGI (CAKI-1 renal)	GI50 (SNB-19 CNS)	TGI (SNB-19 CNS)	GI50 (K-562 leukemia)	TGI (K-562 leukemia)	GI50 (MOLT-4 leukemia)	TGI (MOLT-4 leukemia)	GI50 (PC-3 prostate)	TGI (PC-3 prostate)	GI50 (SK-MEL-5 melanoma)	TGI (SK-MEL-5 melanoma)
C=C1C(=O)O[C@H]2[C@H]1CC/C(COC(=O)/C=C\C(=O)NCc1ccc(Cn3c(=O)sn(-c4ccc(OC)cc4)c3=O)cc1)=C\CC[C@@]1(C)O[C@@H]21	0.755 µM	2.62 µM	0.407 µM	1.23 µM	0.799 µM	1.57 µM	2.76 µM	10 µM	0.291 µM	0.997 µM	0.879 µM	1.78 µM	0.603 µM	50 µM	0.584 µM	9.78 µM	0.542 µM	1.32 µM	0.828 µM	1.53 µM
O=C1Nc2ccccc2C1(c1ccc(O)c(F)c1)c1ccc(O)c(F)c1	0.333 µM	3.49 µM	0.661 µM	36.5 µM	11.1 µM	27.4 µM	16.9 µM	44.5 µM	17.6 µM	55.4 µM	19.1 µM	69 µM	11.6 µM	> 100 µM	10.6 µM	67 µM	1.08 µM	6.95 µM	14.7 µM	29.9 µM
O=S(=O)(O)c1ccc(Cl)cc1.[Cd]	> 100 µM	> 100 µM	37.7 µM	97.2 µM	> 100 µM	> 100 µM	> 100 µM	> 100 µM	36 µM	> 100 µM	> 100 µM	> 100 µM	37.5 µM	> 100 µM	79.2 µM	> 100 µM	25.2 µM	66.3 µM	4.58 µM	16.9 µM
C/C(=N\Nc1ccc2ccccc2n1)c1ccccc1O		> 100 µM		24.7 µM		> 100 µM		> 47.9 µM		> 100 µM		> 100 µM		> 100 µM		> 58.5 µM		> 100 µM		> 100 µM
O=C(/C=C/c1ccccn1)c1ccccc1O	3.34 µM	12.2 µM	1.79 µM	4.24 µM	2.21 µM	7.14 µM	2.4 µM	6.15 µM	1.58 µM	3.21 µM	3.21 µM	13.4 µM	2.09 µM	> 100 µM	2.43 µM	7.04 µM	2.92 µM	8.29 µM	3.95 µM	14.1 µM
Cc1ccc(Cl)cc1Nc1nc(C(F)(F)F)ccc1C(=O)N/N=C/c1c(Cl)cccc1Cl	0.85 µM	> 50.3 µM	1.45 µM	> 24.2 µM	0.929 µM	5.61 µM	0.745 µM	2.29 µM	0.495 µM	3.49 µM	1.75 µM	> 52.2 µM	0.734 µM	> 32.1 µM	0.596 µM	4.93 µM	0.554 µM	> 34.3 µM	1.52 µM	3.82 µM
O=C1CSC(=S)N1c1ccc(F)cc1F		> 100 µM		> 100 µM		> 100 µM		> 100 µM		> 100 µM		> 100 µM						> 100 µM		54.6 µM
CC1(C)CC[C@]2(C(=O)n3ccnc3)CC[C@]3(C)[C@H](C(=O)C=C4[C@@]5(C)C=C(C#N)C(=O)C(C)(C)[C@@H]5CC[C@]43C)[C@@H]2C1	< 0.01 µM		0.0236 µM	0.187 µM	0.112 µM	0.28 µM	0.0105 µM	0.0402 µM	< 0.01 µM	0.0393 µM			< 0.01 µM	0.13 µM	< 0.01 µM	< 0.01 µM	< 0.0142 µM	0.0655 µM	0.0923 µM	0.262 µM
CC1(C)CC(=O)C2=C(C1)NC(SSC1=C(C#N)C(c3ccc(Br)cc3)C3=C(CC(C)(C)CC3=O)N1)=C(C#N)C2c1ccc(Br)cc1 (stereo not given)	48.6 µg/mL	> 100 µM and 150 µg/mL	> 150 µg/mL	150 µg/mL	> 150 µg/mL	> 100 µM and 150 µg/mL	> 150 µg/mL	> 100 µM and 150 µg/mL	> 150 µg/mL	> 100 µM and 150 µg/mL	> 150 µg/mL	> 100 µM and 150 µg/mL	30.8 µg/mL	> 100 µM and 76.4 µg/mL	41.9 µg/mL	> 100 µM and 150 µg/mL	91.4 µg/mL	> 100 µM and 150 µg/mL	> 150 µg/mL	> 100 µM and 150 µg/mL
CCCCCCCCCCCC1=NC(C)(C)CN1CCO	10.7 µM	29.9 µM	7.93 µM	21.6 µM	15.6 µM	31.8 µM	4.6 µM	16.2 µM	4.57 µM	18.9 µM	15.1 µM	30.9 µM	2.44 µM	5.57 µM	3.23 µM	9.94 µM	3.29 µM	17.2 µM	12 µM	25.1 µM
COc1cc(C(=O)NC2CCN(C)CC2)ccc1Nc1ncc2c(n1)N(C1CCCC1)CC(F)(F)C(=O)N2C	< 0.01 µM	18.3 µM	0.0198 µM	16.1 µM	0.028 µM	0.272 µM	< 0.0167 µM	2.61 µM	1.86 µM	12.2 µM	0.0375 µM	16.8 µM	< 0.01 µM	4.86 µM	< 0.01 µM	1.79 µM	< 0.0249 µM	21.4 µM	< 0.0311 µM	1.28 µM
Nc1ccccc1/C=N\Nc1ccccc1	> 100 µM	> 100 µM	> 100 µM	> 100 µM	> 100 µM	> 100 µM	> 100 µM	> 100 µM	1.02 µM	> 100 µM	> 100 µM	> 100 µM	3.24 µM	> 100 µM	26.3 µM	> 100 µM	3.08 µM	> 100 µM	2.69 µM	7.98 µM
COc1ccccc1CNCCCN1C(=O)c2ccc3c4c(ccc(c24)C1=O)C(=O)N(CCCNCCCCNCCCCN)C3=O	0.59 µM	6.59 µM	1.3 µM	3.68 µM	0.472 µM	4.51 µM	1.78 µM	7.64 µM	3.98 µM	46 µM	2.72 µM	10.1 µM	1.02 µM	> 36.9 µM	3.23 µM	19.5 µM	2.5 µM	10.3 µM	0.822 µM	2.23 µM
CCCN(CCC)c1ccc(C=O)cc1	61.9 µM	> 100 µM	18.4 µM	> 100 µM	1.81 µM	4.15 µM	> 88 µM	> 100 µM	53.2 µM	> 100 µM	62 µM	> 100 µM	25.7 µM	> 100 µM	29.8 µM	> 100 µM	38.1 µM	> 100 µM	20.7 µM	54.5 µM
O=C1Nc2cc(Cl)ccc2Oc2cc(Oc3ccccc3)ccc21	8.81 µM	78.4 µM	1.49 µM	20.1 µM	1.69 µM	9.72 µM	5.68 µM	20 µM	3.81 µM	38.8 µM	10.5 µM	49.2 µM			4.78 µM	> 100 µM	4.85 µM	48.4 µM	3.13 µM	15.1 µM
COc1ccc2nc3cccc([N+](=O)[O-])c3c(NCCN(CCO)CCO)c2c1	0.014 µM	0.138 µM	0.0747 µM	0.225 µM	0.022 µM	0.0524 µM	0.0304 µM	0.153 µM	0.0382 µM	0.33 µM	0.129 µM	1.45 µM	0.013 µM	0.0487 µM	0.0161 µM	0.136 µM		0.219 µM		0.0175 µM
O=C(CSc1nc2ccc([N+](=O)[O-])cc2[nH]1)Nc1cccc(Cl)c1	3.02 µM	> 39.1 µM	1.85 µM	7.81 µM	1.43 µM	4.16 µM	2.79 µM	13 µM	2.3 µM	10.4 µM	2.92 µM	15.9 µM	2.74 µM	> 100 µM	3.2 µM	40.4 µM	2.63 µM	16.1 µM	1.2 µM	2.6 µM
CCOC(=O)c1ccc2c(c1)[n+](=O)c(C(=O)c1ccc3ccccc3c1)c(C(F)(F)F)n2[O-]	1.28 µM	2.7 µM	1.13 µM	2.34 µM	1.66 µM	3.09 µM	1.66 µM	3.08 µM	1.42 µM	2.85 µM	1.7 µM	3.07 µM	0.312 µM	1.51 µM			0.729 µM	2 µM	1.45 µM	2.78 µM
C[As](C)Sc1ccnc(S[As](C)C)n1	5.51 µM	> 40.1 µM	12.7 µM	> 100 µM	26 µM	> 100 µM	19 µM	> 46.3 µM	4.35 µM	22.9 µM	14.7 µM	> 56.2 µM	1.06 µM		1.43 µM		3.14 µM	30.8 µM	2.3 µM	10.7 µM
CSC(=S)N/N=C/c1ccccc1		> 100 µM		> 100 µM		> 100 µM		> 100 µM		89.4 µM		> 100 µM		> 100 µM				> 100 µM		> 100 µM
COC1OCC(OS(=O)(=O)c2ccc(C)cc2)C(OC(=O)c2ccccc2)C1OC(=O)c1ccccc1 (stereo not given)	> 100 µM	> 100 µM	1.78 µM	4.65 µM	4.53 µM	90.9 µM	3.18 µM	> 100 µM	4.21 µM	> 100 µM	9.97 µM	> 100 µM	3.16 µM	> 100 µM			9.01 µM	> 100 µM	4.32 µM	> 100 µM
COc1cc(-c2cc(/C=C/C(=O)c3ccc4c(c3)OCO4)[nH]n2)cc(OC)c1OC	2.85 µM	11.1 µM			2.76 µM	15.4 µM	2.18 µM	5.17 µM	5.51 µM	> 100 µM	4.3 µM	> 100 µM	3.2 µM	9.81 µM	2.98 µM	9.15 µM	2.81 µM	13.7 µM	4.51 µM	> 100 µM
COc1ccc2c(CC(=O)O)cc(=O)oc2c1		> 100 µM				> 100 µM		> 100 µM		> 100 µM		> 100 µM		> 100 µM		> 100 µM		> 100 µM		> 100 µM
CC(C)(C)C(=O)OCOP(=O)(OCOC(=O)C(C)(C)C)C1CCCN(OC(=O)c2ccccc2)C1=O (stereo not given)	0.543 µM	6.95 µM	5.1 µM	93.1 µM	0.283 µM	0.832 µM	1.9 µM	18.7 µM			1.51 µM	17 µM	0.496 µM	> 100 µM	1.02 µM	8.45 µM	4.38 µM	> 100 µM	0.983 µM	3.28 µM
O=C(CCc1nnc(-c2c(Cl)cccc2Cl)o1)c1nc2ccccc2[nH]1	9.26 µM	> 100 µM	18.7 µM	> 100 µM	1.53 µM	10.1 µM	7.67 µM	41.3 µM	3.49 µM	41.1 µM	17.4 µM	> 100 µM			4.07 µM	25.8 µM	3.71 µM	> 100 µM	2.88 µM	14.9 µM
CN(C)CCCNC(=O)c1cc(NC(=O)CCNC(=O)c2ccc3c(c2)C(=O)c2ccccc2C3=O)cn1C	> 100 µM	> 100 µM			> 100 µM	> 100 µM	> 100 µM	> 100 µM	> 100 µM	> 100 µM	> 100 µM	> 100 µM	> 100 µM	> 100 µM	37.4 µM	> 100 µM	> 100 µM	> 100 µM	> 100 µM	> 100 µM
